Experimental findings from patent US8501446B2 (Vertex Pharmaceuticals Incorporated, priority 2004, dated 2013) are described below.

Structures are written as SMILES. Where two headings read alike, the source gives them in different places.

What all share (format): biochemical
One assay has as its target T1, JAK3 (Homo sapiens, UniProt P52333).
T1 sequence (P52333 1-1124): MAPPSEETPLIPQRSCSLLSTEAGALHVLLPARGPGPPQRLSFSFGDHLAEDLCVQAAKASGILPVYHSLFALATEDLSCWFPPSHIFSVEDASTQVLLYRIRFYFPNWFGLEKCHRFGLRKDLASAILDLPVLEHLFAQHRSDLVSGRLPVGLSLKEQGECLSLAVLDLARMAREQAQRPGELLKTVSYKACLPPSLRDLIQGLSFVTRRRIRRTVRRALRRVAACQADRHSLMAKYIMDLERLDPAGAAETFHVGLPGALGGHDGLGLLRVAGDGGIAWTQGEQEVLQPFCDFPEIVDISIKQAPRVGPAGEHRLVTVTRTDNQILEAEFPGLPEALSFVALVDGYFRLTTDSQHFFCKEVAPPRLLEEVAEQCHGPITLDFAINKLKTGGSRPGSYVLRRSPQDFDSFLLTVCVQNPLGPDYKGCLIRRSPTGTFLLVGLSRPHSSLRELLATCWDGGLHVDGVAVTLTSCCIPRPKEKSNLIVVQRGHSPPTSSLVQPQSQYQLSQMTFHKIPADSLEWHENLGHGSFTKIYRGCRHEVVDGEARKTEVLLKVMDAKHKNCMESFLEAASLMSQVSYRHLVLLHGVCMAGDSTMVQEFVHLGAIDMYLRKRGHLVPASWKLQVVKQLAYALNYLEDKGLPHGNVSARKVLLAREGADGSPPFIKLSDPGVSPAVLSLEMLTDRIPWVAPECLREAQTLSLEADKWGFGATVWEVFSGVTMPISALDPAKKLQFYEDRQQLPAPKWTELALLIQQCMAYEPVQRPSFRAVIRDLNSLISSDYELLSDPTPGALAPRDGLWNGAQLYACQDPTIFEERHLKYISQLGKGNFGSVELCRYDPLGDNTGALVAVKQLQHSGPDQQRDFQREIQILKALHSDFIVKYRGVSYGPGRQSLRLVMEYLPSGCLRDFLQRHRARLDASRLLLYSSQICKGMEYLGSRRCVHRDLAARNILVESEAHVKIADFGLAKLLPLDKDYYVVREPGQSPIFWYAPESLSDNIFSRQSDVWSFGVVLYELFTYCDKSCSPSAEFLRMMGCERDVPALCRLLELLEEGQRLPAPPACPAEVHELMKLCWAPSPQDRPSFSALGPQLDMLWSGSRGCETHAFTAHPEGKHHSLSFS
Put plainly: JAK3 inhibition assay (standard radioactive enzyme assay). The note with it: average Ki if more than one value determined.

Another assay has as its target JAK2 (Homo sapiens, UniProt O60674). As to the kind of experiment: JAK2 inhibition assay (radioactive enzyme assay, as for JAK3). The note with it: average Ki if more than one value determined. Summed up: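 Both kinases: poly(Glu)4Tyr substrate in 100 mM HEPES pH 7.4, 10 mM MgCl2, 1 mM DTT. Run 20 min at 25° C, TCA stop, filter-bound ³³P counted, Ki(app) fitted after background subtraction. JAK3: final [γ-³³P]ATP 5 μM, enzyme added as 2 nM solution. JAK2: final poly(Glu)4Tyr 15 μM, final ATP 12 μM.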

In the next assay the target is ROCK (Homo sapiens, UniProt Q13464). As to the kind of experiment: ROCK inhibition assay, standard radioactive enzyme assay ("33P"). On the procedure:
Some compounds were screened for their ability to inhibit ROCK using a standard radioactive enzyme assay. Assays were carried out in a solution containing 100 mM HEPES (pH 7.5), 10 mM MgCl2, 25 mM NaCl, 2 mM DTT, and 1.5% DMSO. Final substrate concentrations in the assay were 13 μM [γ-^33P] ATP (25 mCi ^33P ATP/mmol ATP, Perkin Elmer, Cambridge, Mass./Sigma Chemicals, St Louis, Mo.) and 27 μM Myelin Basic Protein (MBP). Final enzyme concentration in the assay was 5 nM ROCK. Assays were carried out at room temperature. 1.5 μl of DMSO stock containing serial dilutions of the compound of the present invention (concentrations ranging from 10 μM to 2.6 nM) was placed in a 96 well plate. 50 μl of Solution 1 (100 mM HEPES (pH 7.5), 10 mM MgCl2, […]) was added to the plate. The reaction was initiated by addition of 50 μl of Solution 2 (100 mM HEPES (pH 7.5), 10 mM MgCl2, 4 mM DTT, […] and 10 nM ROCK). After 2 hours the reaction was quenched with 50 μL of 30% trichloroacetic acid (TCA, Fisher) containing 9 mM ATP. Transfer of 140 μL of the quenched reaction to a glass fiber filter plate (Corning, Cat. No. 3511) was followed by washing 3 times with 5% TCA. 50 μL of Optima Gold scintillation fluid (Perkin Elmer) was added and the plates were counted on a Top Count (Perkin Elmer). After removing mean background values for all of the data points the data was fit using Prism software to obtain a Ki(app).

Assay [1] deals with T2, full length Aurora-A (AA 1-403) (Homo sapiens, UniProt O14965).
T2 construct: full length Aurora-A (AA 1-403)
T2 sequence (O14965 1-403): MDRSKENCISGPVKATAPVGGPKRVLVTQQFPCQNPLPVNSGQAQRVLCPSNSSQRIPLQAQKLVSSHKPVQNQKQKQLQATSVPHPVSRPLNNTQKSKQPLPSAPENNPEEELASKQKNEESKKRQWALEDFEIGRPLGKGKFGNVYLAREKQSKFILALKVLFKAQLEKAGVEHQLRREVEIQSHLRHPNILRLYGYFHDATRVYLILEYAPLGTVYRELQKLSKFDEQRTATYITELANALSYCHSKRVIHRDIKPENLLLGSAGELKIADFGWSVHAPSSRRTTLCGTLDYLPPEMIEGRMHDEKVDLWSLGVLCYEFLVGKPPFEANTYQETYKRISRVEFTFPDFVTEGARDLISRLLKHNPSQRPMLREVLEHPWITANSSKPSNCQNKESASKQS
Put plainly: Aurora-A inhibition assay, standard coupled enzyme system. The note with it: average Ki if more than one value determined.

In a further assay the target is Aurora-B (Homo sapiens, UniProt Q96GD4). As to the kind of experiment: Aurora-B inhibition assay, radioactive assay. Conditions: average Ki if more than one value determined. Summed up:
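Radiometric [γ-33P]ATP kinase assay run as described for JAK3/ROCK but with Aurora-B protein; 33P incorporation into substrate measured by filter capture and scintillation counting after TCA quench. Background-subtracted data fit to give Ki(app).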

Sequence of ROCK (Q13464 whole entry): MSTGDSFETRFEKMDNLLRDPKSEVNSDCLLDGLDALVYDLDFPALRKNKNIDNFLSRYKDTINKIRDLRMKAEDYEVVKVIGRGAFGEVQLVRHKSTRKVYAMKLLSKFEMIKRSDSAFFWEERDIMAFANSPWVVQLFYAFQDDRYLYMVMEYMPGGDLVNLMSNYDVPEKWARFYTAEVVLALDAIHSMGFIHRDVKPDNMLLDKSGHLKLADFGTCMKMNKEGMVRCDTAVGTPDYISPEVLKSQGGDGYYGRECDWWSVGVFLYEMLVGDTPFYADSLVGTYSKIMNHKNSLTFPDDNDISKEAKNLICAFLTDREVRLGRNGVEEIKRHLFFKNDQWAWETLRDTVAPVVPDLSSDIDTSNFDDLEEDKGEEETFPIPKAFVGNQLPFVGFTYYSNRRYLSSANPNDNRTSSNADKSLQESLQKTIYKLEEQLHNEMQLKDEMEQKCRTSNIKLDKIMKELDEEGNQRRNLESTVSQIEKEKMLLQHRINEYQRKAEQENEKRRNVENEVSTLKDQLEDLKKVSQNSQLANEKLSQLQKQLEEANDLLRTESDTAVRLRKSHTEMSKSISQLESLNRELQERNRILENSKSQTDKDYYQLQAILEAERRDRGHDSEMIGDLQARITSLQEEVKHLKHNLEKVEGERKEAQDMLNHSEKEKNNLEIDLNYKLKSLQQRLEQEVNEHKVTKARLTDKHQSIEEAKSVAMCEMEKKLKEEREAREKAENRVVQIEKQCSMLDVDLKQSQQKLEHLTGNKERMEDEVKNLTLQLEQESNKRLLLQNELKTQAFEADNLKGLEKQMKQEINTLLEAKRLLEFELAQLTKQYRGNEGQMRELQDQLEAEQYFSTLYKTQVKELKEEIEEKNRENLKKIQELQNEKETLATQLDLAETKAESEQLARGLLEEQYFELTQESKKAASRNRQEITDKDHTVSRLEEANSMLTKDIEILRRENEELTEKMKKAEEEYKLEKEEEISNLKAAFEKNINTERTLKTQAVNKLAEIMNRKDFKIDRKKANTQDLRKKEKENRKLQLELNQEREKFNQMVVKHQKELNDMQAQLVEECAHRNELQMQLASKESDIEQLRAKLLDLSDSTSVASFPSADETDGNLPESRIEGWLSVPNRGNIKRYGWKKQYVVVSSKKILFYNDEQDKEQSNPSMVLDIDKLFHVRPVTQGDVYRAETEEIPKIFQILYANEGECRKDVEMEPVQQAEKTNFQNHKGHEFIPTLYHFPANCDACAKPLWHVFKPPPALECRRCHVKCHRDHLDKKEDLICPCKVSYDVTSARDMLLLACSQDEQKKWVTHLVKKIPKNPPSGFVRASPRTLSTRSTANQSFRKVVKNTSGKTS
Sequence of JAK2 (O60674 whole entry, species assumed): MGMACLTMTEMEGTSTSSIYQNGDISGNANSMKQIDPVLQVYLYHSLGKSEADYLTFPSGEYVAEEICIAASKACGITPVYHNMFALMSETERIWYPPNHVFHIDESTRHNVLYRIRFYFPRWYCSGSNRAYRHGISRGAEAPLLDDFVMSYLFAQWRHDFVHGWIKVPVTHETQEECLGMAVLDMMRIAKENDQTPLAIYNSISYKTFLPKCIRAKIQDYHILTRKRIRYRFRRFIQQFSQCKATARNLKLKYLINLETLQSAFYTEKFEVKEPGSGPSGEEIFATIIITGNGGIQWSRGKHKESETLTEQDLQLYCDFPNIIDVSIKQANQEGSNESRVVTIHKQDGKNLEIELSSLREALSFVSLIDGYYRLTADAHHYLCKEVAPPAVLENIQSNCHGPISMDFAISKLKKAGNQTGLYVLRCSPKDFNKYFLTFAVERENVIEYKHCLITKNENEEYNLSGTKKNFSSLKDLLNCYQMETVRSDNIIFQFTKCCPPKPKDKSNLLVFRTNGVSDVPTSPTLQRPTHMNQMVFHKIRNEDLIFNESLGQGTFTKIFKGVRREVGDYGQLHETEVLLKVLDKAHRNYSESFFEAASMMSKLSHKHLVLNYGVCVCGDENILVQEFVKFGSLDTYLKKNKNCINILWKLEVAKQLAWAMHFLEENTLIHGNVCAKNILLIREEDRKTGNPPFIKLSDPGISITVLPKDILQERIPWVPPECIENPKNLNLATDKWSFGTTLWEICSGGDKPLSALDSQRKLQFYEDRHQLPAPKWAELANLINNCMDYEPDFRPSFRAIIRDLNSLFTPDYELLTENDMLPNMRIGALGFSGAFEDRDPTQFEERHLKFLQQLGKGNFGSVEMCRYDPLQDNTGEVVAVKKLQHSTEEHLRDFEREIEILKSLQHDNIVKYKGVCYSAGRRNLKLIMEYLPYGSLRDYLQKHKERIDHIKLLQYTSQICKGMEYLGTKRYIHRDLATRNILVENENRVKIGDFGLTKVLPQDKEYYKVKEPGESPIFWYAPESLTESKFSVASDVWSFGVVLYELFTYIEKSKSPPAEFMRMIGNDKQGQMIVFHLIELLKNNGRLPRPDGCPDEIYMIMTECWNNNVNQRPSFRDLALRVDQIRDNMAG
Sequence of Aurora-B (Q96GD4 whole entry): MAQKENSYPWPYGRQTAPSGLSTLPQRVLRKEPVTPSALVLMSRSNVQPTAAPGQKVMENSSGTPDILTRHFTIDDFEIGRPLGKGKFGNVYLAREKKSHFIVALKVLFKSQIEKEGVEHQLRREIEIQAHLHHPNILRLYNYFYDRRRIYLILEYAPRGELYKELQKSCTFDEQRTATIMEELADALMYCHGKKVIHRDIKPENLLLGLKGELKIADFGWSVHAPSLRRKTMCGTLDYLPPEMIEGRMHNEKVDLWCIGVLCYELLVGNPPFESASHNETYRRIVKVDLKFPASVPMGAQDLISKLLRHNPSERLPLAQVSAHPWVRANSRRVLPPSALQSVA

With `CC(=O)N1[C@H](C)CN(c2nc(-c3c[nH]c4ncc(Cl)cc34)ccc2C(N)=O)C[C@@H]1C` [Compound 32], the Ki is less than 500 nM on JAK3, less than 500 nM at JAK2, 500 to 5000 nM on ROCK and less than 500 nM in assay [1].
Take `Clc1cnc2[nH]cc(-c3cccc(NCc4ccccc4)n3)c2c1` [Compound 20]: the Ki at JAK3 is less than 500 nM; on JAK2 it was less than 500 nM; on ROCK, 500 to 5000 nM; in assay [1], less than 500 nM.
As for `COc1cnc2[nH]cc(-c3ccnc(N4CCCN(C(C)=O)CC4)n3)c2c1` [Compound 24], the Ki at JAK3 is less than 500 nM; at JAK2, less than 500 nM; at ROCK, less than 500 nM; in assay [1], 500 to 5000 nM.
Turning to `COc1cnc2[nH]cc(-c3ccnc(N4C[C@@H](C)N(C(C)=O)[C@@H](C)C4)n3)c2c1` [Compound 25], the Ki (at JAK3; at JAK2; on ROCK; in assay [1]) was less than 500 nM each time.
Turning to `COc1cnc2[nH]cc(-c3cc(N[C@@H](C)c4ccccc4)ncn3)c2c1` [Compound 14], the Ki on JAK3 was less than 500 nM; at JAK2, less than 500 nM; on ROCK, less than 500 nM; in assay [1], 500 to 5000 nM.
Regarding `Nc1ccc(-c2c(-c3ccccc3)[nH]c3ncc(Br)cc23)cc1` [Compound 212], the figures for the Ki (on Aurora-B; on ROCK; in assay [1]) were 500 to 5000 nM, 500 to 5000 nM and less than 500 nM, respectively.
For `Clc1cnc2[nH]cc(-c3ccnc(N4CCCCCC4)n3)c2c1` [Compound 9], the Ki at JAK3 (Ki(app)) is 500 to 5000 nM; at JAK3, less than 500 nM; on JAK2 (Ki(app)), 500 to 5000 nM; at JAK2 it was less than 500 nM; at ROCK, 500 to 5000 nM; on ROCK (Ki(app)), 500 to 5000 nM. This compound also had a Ki in assay [1] of 500 to 5000 nM.
Regarding `CC(C)C[C@@H](CO)Nc1nccc(-c2c[nH]c3ncc(Cl)cc23)n1` [Compound 10], the Ki (on JAK3; on JAK2; on ROCK; in assay [1]) was less than 500 nM each time.
In the case of `Clc1cnc2[nH]cc(-c3ccnc(NCc4ccccc4)n3)c2c1` [Compound 4], the Ki (on JAK3; at JAK2; at ROCK; in assay [1]) was less than 500 nM in each case.
For `COc1cnc2[nH]cc(-c3ccnc(N4CCCN(S(C)(=O)=O)CC4)n3)c2c1` [Compound 30], the Ki (at JAK3; at JAK2; at ROCK; in assay [1]) was less than 500 nM each time.
